According to patent publication US6379692B1, “Pharmaceutical composition comprising a suspension for the active ingredient” (Chauvin Pharmaceuticals Limited, priority 1997, dated 2002):

Assay: particle size by Coulter counter (100 μm tube)
Assay type: physicochemical
Conditions: without the use of a viscosity-enhancing agent
Description: (iii) bringing the salt solution, the aqueous suspension or dispersion and the acid into admixture whereby there is formed a precipitate of microparticles of the active ingredient wherein 90% of the microparticles are of a diameter less than about 10 μm (number) when measured by a Coulter counter (100 μm tube).
Step (iii) may be undertaken by first bringing the salt solution into admixture with the aqueous suspension or dispersion followed by addition of the acid. However, preferably, the acid is added to the aqueous suspension/dispersion prior to addition thereto of the salt solution. Preferably, more base is then added to the suspension to neutralize the hydrophilic polymer(s). […]
However, in contrast to when pre-micronized active ingredient is used, the process of the present invention whereby such fine particles are produced in situ by precipitation results in a better distribution of particle size, with the D90 at room temperature being of the order of 5-10 μm (number), preferably 7-9 μm (number) or 10-16 μm (volume), whereas for pre-micronized drug the D90 is of the order of 5-10 μm (number) or 21-24 μm (volume). […] The term “D90” as used herein with respect to particle size distribution means that 90% of the particles have a diameter, when measured by a Coulter counter (100 μm tube), of less than the quoted figure. […]

length of needle-shaped crystals precipitated: greater than 30 μm
SMILES: Nc1nc2c(ncn2COCCO)c(=O)[nH]1 [aciclovir, 2-amino-1,9-dihydro-9-[(2-hydroxyethoxy)methyl]6H-purin-6-one]
